Experimental data as given in article PMC6407917, “Identification of GSK3186899/DDD853651 as a Preclinical Development Candidate for the Treatment of Visceral Leishmaniasis” (Journal of Medicinal Chemistry, 2018).

Experiments:
[1] = target: HIPK1 (Homo sapiens, UniProt Q86Z02); assay: biochemical; design: species or system HEK293/K-562/placenta mixed human extract; Kinobeads chemoproteomic competition binding, quantified by TMT LC-MS/MS, dose response up to 20 uM
[2] = target: MAP4K4 (Homo sapiens, UniProt O95819); assay: biochemical; design: species or system HEK293/K-562/placenta mixed human extract; Kinobeads chemoproteomic competition binding, quantified by TMT LC-MS/MS, dose response up to 20 uM
Sequence of MAP4K4 (O95819 whole entry): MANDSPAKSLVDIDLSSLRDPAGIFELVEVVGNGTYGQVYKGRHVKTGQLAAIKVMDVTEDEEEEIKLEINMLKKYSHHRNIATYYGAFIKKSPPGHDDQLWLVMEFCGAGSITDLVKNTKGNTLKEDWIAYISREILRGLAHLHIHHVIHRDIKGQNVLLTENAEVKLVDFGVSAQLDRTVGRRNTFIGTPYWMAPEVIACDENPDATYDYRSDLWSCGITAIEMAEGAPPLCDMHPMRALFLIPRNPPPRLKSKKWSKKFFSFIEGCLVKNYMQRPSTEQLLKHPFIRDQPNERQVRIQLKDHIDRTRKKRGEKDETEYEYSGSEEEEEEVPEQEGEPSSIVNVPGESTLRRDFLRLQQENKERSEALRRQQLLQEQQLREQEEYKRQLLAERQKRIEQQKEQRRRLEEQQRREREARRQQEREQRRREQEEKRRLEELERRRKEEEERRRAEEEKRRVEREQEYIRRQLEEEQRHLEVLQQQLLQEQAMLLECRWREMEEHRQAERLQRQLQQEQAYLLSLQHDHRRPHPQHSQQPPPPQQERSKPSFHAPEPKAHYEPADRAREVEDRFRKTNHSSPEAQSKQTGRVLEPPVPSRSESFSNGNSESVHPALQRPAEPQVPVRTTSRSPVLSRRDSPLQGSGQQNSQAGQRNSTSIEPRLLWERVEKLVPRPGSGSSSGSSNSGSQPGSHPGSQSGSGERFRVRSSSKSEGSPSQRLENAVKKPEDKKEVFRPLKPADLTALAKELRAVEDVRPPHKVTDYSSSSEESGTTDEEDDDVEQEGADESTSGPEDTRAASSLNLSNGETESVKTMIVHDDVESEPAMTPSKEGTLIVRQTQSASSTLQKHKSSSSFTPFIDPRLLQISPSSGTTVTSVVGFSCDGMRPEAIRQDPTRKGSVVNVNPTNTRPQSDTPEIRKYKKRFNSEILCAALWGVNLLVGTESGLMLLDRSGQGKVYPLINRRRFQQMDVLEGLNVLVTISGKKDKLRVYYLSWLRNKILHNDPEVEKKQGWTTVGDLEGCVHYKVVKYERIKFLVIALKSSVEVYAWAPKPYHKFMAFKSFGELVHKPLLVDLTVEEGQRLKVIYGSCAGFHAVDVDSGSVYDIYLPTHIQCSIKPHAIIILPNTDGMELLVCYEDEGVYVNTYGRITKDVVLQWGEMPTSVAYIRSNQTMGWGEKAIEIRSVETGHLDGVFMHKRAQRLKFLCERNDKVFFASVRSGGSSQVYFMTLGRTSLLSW

[3] = target: DSTYK (Homo sapiens, UniProt Q6XUX3); assay: biochemical; design: species or system HEK293/K-562/placenta mixed human extract; Kinobeads chemoproteomic competition binding, quantified by TMT LC-MS/MS, dose response up to 20 uM
Sequence of DSTYK (Q6XUX3 whole entry): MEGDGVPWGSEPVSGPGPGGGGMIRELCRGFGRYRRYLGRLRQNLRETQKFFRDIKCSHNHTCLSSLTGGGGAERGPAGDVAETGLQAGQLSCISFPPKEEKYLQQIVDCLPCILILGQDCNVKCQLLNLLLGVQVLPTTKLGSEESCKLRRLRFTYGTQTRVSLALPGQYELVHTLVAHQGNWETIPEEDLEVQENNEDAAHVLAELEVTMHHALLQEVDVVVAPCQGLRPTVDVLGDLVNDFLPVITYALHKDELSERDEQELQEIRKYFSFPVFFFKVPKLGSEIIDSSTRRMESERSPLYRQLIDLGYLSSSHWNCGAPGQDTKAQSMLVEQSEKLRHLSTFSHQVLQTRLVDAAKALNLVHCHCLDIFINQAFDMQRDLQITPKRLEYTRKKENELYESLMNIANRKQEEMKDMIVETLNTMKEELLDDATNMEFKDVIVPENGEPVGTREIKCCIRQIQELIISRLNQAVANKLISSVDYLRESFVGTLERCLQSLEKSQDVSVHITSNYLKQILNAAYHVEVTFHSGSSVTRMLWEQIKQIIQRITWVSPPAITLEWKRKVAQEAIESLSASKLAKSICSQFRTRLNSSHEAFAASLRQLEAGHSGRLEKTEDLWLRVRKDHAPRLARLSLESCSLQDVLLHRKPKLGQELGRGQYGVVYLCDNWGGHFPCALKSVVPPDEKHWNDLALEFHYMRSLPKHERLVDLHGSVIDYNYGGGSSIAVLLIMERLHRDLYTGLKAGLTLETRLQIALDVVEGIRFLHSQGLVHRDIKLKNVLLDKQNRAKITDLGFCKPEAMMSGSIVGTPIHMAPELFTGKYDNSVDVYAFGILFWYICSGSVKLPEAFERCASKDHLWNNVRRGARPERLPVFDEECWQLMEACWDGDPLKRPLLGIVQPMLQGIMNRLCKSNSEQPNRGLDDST

[4] = target: MAP3K5 (Homo sapiens, UniProt Q99683); assay: biochemical; design: species or system HEK293/K-562/placenta mixed human extract; Kinobeads chemoproteomic competition binding, quantified by TMT LC-MS/MS, dose response up to 20 uM
[5] = target: PKN3 (Homo sapiens, UniProt Q6P5Z2); assay: biochemical; design: species or system HEK293/K-562/placenta mixed human extract; Kinobeads chemoproteomic competition binding, quantified by TMT LC-MS/MS, dose response up to 20 uM
Sequence of PKN3 (Q6P5Z2 whole entry): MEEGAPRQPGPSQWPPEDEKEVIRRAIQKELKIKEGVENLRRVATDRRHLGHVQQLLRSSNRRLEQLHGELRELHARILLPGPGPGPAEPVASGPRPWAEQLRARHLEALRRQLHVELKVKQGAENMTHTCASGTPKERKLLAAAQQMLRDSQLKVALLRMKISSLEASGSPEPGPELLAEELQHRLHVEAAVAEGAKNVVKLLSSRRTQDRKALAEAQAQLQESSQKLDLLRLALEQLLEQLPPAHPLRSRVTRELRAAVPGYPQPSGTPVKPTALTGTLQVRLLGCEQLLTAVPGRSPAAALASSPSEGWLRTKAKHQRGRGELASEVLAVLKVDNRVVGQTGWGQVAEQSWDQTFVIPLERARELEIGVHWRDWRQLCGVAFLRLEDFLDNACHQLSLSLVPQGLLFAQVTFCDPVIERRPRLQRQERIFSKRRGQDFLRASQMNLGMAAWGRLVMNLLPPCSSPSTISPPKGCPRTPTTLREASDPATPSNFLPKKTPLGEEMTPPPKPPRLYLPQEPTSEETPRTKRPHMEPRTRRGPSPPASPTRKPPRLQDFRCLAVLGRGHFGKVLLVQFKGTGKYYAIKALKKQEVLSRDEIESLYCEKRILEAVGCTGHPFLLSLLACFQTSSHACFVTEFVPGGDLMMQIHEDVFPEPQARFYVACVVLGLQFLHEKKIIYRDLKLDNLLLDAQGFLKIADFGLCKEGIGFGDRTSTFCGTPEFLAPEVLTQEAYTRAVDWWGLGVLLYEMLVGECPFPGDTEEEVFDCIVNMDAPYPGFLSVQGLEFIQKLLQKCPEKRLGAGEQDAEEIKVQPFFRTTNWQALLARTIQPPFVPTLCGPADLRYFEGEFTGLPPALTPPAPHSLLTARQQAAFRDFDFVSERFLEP

[6] = target: EIF2AK1 (Homo sapiens, UniProt Q9BQI3); assay: biochemical; design: species or system HEK293/K-562/placenta mixed human extract; Kinobeads chemoproteomic competition binding, quantified by TMT LC-MS/MS, dose response up to 20 uM
[7] = target: MERTK (Homo sapiens, UniProt Q12866); assay: biochemical; design: species or system HEK293/K-562/placenta mixed human extract; Kinobeads chemoproteomic competition binding, quantified by TMT LC-MS/MS, dose response up to 20 uM
[8] = target: PRKCD (Homo sapiens, UniProt Q05655); assay: biochemical; design: species or system HEK293/K-562/placenta mixed human extract; Kinobeads chemoproteomic competition binding, quantified by TMT LC-MS/MS, dose response up to 20 uM
[9] = target: MAP4K1 (Homo sapiens, UniProt Q92918); assay: biochemical; design: species or system HEK293/K-562/placenta mixed human extract; Kinobeads chemoproteomic competition binding, quantified by TMT LC-MS/MS, dose response up to 20 uM
[10] = target: FN3K (Homo sapiens, UniProt Q9H479); assay: biochemical; design: species or system HEK293/K-562/placenta mixed human extract; Kinobeads chemoproteomic competition binding, quantified by TMT LC-MS/MS, dose response up to 20 uM
Sequence of FN3K (Q9H479 whole entry): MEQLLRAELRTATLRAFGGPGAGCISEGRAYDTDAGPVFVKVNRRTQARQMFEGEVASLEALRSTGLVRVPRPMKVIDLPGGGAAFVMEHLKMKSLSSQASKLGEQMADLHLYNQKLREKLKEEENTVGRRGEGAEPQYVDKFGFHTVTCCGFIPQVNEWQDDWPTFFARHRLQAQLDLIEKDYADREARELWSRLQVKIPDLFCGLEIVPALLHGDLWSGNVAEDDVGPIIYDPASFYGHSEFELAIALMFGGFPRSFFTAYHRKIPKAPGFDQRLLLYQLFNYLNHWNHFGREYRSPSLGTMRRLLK

[11] = target: TAOK2 (Homo sapiens, UniProt Q9UL54); assay: biochemical; design: species or system HEK293/K-562/placenta mixed human extract; Kinobeads chemoproteomic competition binding, quantified by TMT LC-MS/MS, dose response up to 20 uM
[12] = target: MAP3K15 (Homo sapiens, UniProt Q6ZN16); assay: biochemical; design: species or system HEK293/K-562/placenta mixed human extract; Kinobeads chemoproteomic competition binding, quantified by TMT LC-MS/MS, dose response up to 20 uM
Sequence of MAP3K15 (Q6ZN16 whole entry): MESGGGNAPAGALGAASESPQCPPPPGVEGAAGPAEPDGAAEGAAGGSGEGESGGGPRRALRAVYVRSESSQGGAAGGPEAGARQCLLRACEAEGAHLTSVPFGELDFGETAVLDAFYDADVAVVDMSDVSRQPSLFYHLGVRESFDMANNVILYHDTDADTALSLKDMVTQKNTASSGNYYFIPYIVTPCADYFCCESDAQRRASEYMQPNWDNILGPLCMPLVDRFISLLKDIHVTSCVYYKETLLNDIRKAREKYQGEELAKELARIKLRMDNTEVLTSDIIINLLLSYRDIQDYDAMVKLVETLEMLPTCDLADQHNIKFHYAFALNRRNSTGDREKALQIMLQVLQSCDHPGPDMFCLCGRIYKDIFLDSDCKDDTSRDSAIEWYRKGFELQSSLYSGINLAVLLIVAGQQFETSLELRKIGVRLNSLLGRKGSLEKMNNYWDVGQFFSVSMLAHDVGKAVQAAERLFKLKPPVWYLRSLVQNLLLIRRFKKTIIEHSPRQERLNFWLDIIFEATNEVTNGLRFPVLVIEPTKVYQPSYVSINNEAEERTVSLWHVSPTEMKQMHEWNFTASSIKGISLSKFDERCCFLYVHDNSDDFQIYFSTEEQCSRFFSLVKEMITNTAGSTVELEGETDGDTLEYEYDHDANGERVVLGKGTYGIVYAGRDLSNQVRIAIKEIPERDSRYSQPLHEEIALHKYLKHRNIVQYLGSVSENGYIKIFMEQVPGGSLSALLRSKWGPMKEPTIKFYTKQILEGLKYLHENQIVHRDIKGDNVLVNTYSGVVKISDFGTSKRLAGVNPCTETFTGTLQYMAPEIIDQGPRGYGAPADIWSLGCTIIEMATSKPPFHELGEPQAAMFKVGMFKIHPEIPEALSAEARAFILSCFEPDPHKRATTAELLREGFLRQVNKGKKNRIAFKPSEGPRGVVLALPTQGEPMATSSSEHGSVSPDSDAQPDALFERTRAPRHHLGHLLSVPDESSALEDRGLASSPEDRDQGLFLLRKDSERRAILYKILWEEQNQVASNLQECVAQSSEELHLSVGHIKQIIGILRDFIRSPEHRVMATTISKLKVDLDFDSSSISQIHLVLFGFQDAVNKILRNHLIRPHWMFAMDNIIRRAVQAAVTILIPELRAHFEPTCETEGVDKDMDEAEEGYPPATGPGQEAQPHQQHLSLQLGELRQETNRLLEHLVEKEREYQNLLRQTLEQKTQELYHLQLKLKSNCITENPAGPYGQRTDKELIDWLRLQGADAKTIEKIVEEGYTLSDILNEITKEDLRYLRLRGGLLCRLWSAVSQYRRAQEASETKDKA

[13] = target: PRKAA2 (Homo sapiens, UniProt P54646); assay: biochemical; design: species or system HEK293/K-562/placenta mixed human extract; Kinobeads chemoproteomic competition binding, quantified by TMT LC-MS/MS, dose response up to 20 uM
[14] = target: CAMK2B (Homo sapiens, UniProt Q13554); assay: biochemical; design: species or system HEK293/K-562/placenta mixed human extract; Kinobeads chemoproteomic competition binding, quantified by TMT LC-MS/MS, dose response up to 20 uM
[15] = target: CAMK4 (Homo sapiens, UniProt Q16566); assay: biochemical; design: species or system HEK293/K-562/placenta mixed human extract; Kinobeads chemoproteomic competition binding, quantified by TMT LC-MS/MS, dose response up to 20 uM
[16] = target: DDR1 (Homo sapiens, UniProt Q08345); assay: biochemical; design: species or system HEK293/K-562/placenta mixed human extract; Kinobeads chemoproteomic competition binding, quantified by TMT LC-MS/MS, dose response up to 20 uM
[17] = target: CSNK1E (Homo sapiens, UniProt P49674); assay: biochemical; design: species or system HEK293/K-562/placenta mixed human extract; Kinobeads chemoproteomic competition binding, quantified by TMT LC-MS/MS, dose response up to 20 uM
[18] = target: SYK (Homo sapiens, UniProt P43405); assay: biochemical; design: species or system HEK293/K-562/placenta mixed human extract; Kinobeads chemoproteomic competition binding, quantified by TMT LC-MS/MS, dose response up to 20 uM
[19] = target: MARK4 (Homo sapiens, UniProt Q96L34); assay: biochemical; design: species or system HEK293/K-562/placenta mixed human extract; Kinobeads chemoproteomic competition binding, quantified by TMT LC-MS/MS, dose response up to 20 uM
[20] = target: CHEK2 (Homo sapiens, UniProt O96017); assay: biochemical; design: species or system HEK293/K-562/placenta mixed human extract; Kinobeads chemoproteomic competition binding, quantified by TMT LC-MS/MS, dose response up to 20 uM
[21] = target: Cdk4 (Homo sapiens, UniProt P11802); settings: mixed human cell/tissue extract; maximum concentration 20 μM
Sequence of Cdk4 (P11802 2-303): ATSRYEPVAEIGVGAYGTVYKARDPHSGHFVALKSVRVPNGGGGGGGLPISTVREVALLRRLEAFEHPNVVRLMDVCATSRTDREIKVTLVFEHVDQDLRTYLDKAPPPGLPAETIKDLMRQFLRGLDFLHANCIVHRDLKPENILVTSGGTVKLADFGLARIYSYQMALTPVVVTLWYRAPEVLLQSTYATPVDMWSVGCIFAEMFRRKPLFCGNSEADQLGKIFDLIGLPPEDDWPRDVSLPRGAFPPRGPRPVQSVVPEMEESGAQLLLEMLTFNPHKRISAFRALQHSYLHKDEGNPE

COc1ccccc1-c1n[nH]c2nc(N[C@H]3CC[C@H](NS(=O)(=O)CCC(F)(F)F)CC3)nc(OC)c12 [compound 31, 3,3,3-Trifluoro-N-(trans-4-((4-methoxy-3-(2-methoxyphenyl)-1H-pyrazolo[3,4-d]pyrimidin-6-yl)amino)cyclohexyl)propane-1-sulfonamide]
IC50 [1]: ≥ 20 µM | IC50 [2]: ≥ 20 µM | IC50 [3]: ≥ 20 µM | IC50 [4]: ≥ 20 µM | IC50 [5]: ≥ 20 µM | IC50 [6]: ≥ 20 µM | IC50 [7]: ≥ 20 µM | IC50 [8]: ≥ 20 µM | IC50 [9]: ≥ 20 µM | IC50 [10]: ≥ 20 µM | IC50 [11]: 5.2 µM | IC50 [12]: ≥ 20 µM | IC50 [13]: ≥ 20 µM | IC50 [14]: ≥ 20 µM | IC50 [15]: ≥ 20 µM | IC50 [16]: ≥ 20 µM | IC50 [17]: 7.7 µM | IC50 [18]: ≥ 20 µM | IC50 [19]: ≥ 20 µM | IC50 [20]: ≥ 20 µM

COc1nc(N[C@H]2CC[C@H](NS(=O)(=O)CC(C)C)CC2)nc2[nH]nc(N3CCOC[C@H]3C)c12 [compound 39, N-(trans-4-((4-Methoxy-3-((R)-3-methylmorpholino)-1H-pyrazolo[3,4-d]pyrimidin-6-yl)amino)cyclohexyl)-2-methylpropane-1-sulfonamide]
IC50 [21]: > 20 µM
